Laboratory results from PubChem BioAssay (NCI).
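Following 48 hours of exposure in 96-well plates, responses at five concentrations were used to interpolate endpoints linearly. TGI marks complete inhibition of growth.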

What was measured:
Assay in all cases: NCI-60 cell line screen, 48 h
[1] = test system: IGROV1 ovarian
[2] = test system: K-562 leukemia
[3] = test system: CCRF-CEM leukemia
[4] = test system: HCC-2998 colon
[5] = test system: KM12 colon
[6] = test system: UACC-257 melanoma
[7] = test system: EKVX NSCLC
[8] = test system: HCT-15 colon
[9] = test system: UACC-62 melanoma
[10] = test system: KM20L2 colon
[11] = test system: OVCAR-5 ovarian
[12] = test system: U251 CNS
[13] = test system: COLO 205 colon
[14] = test system: OVCAR-4 ovarian
[15] = test system: UO-31 renal
[16] = test system: HL-60(TB) leukemia
[17] = test system: NCI-H460 lung
[18] = test system: SF-539 CNS
[19] = test system: RPMI-8226 leukemia
[20] = test system: SNB-75 CNS
[21] = test system: ACHN renal
[22] = test system: OVCAR-3 ovarian
[23] = test system: HOP-92 NSCLC
[24] = test system: CAKI-1 renal
[25] = test system: A498 renal
[26] = test system: SK-MEL-28 melanoma
[27] = test system: OVCAR-8 ovarian
[28] = test system: DMS 114 small cell lung
[29] = test system: M19-MEL melanoma
[30] = test system: SNB-19 CNS
[31] = test system: SK-OV-3 ovarian
[32] = test system: SNB-78 CNS
[33] = test system: NCI-H522 lung
[34] = test system: M14 melanoma
[35] = test system: SW-620 colon
[36] = test system: SK-MEL-2 melanoma
[37] = test system: HOP-62 NSCLC
[38] = test system: DLD-1 colon
[39] = test system: A549 NSCLC
[40] = test system: LOX IMVI melanoma
[41] = test system: MALME-3M melanoma
[42] = test system: 786-0 renal
[43] = test system: NCI-H23 lung
[44] = test system: MOLT-4 leukemia
[45] = test system: HCT-116 colon
[46] = test system: SK-MEL-5 melanoma
[47] = test system: LXFL 529 NSCLC
[48] = test system: SF-268 CNS
[49] = test system: TK-10 renal
[50] = test system: RXF 393 renal
[51] = test system: SR leukemia
[52] = test system: DMS 273 small cell lung
[53] = test system: HT29 colon
[54] = test system: SF-295 CNS
[55] = test system: SN12C renal
[56] = test system: NCI-H226 lung

## N#Cc1ccccc1NC(=O)/C(=N\Nc1ccc([N+](=O)[O-])cc1)C1C(=O)NC(=O)NC1=O
[1]
  TGI: > 100 µM
[2]
  TGI: > 100 µM
[3]
  TGI: > 100 µM
[4]
  TGI: > 100 µM
[5]
  TGI: > 100 µM
[6]
  TGI: > 100 µM
[7]
  TGI: > 100 µM
[8]
  TGI: > 100 µM
[9]
  TGI: > 100 µM
[10]
  TGI: > 100 µM
[11]
  TGI: > 100 µM
[12]
  TGI: > 100 µM
[13]
  TGI: > 100 µM
[14]
  TGI: > 100 µM
[15]
  TGI: > 100 µM
[16]
  TGI: > 100 µM
[17]
  TGI: > 100 µM
[18]
  TGI: > 100 µM
[19]
  TGI: > 100 µM
[20]
  TGI: > 100 µM
[21]
  TGI: > 100 µM
[22]
  TGI: > 100 µM
[23]
  TGI: 74.8 µM
[24]
  TGI: > 100 µM
[25]
  TGI: > 100 µM
[26]
  TGI: > 100 µM
[27]
  TGI: > 100 µM
[28]
  TGI: > 100 µM
[29]
  TGI: > 100 µM
[30]
  TGI: > 100 µM
[31]
  TGI: > 100 µM
[32]
  TGI: > 100 µM
[33]
  TGI: > 100 µM
[34]
  TGI: > 100 µM
[35]
  TGI: > 100 µM
[36]
  TGI: > 100 µM
[37]
  TGI: > 100 µM
[38]
  TGI: > 100 µM
[39]
  TGI: > 100 µM
[40]
  TGI: > 100 µM
[41]
  TGI: > 100 µM
[42]
  TGI: > 100 µM
[43]
  TGI: > 100 µM
[44]
  TGI: > 100 µM
[45]
  TGI: > 100 µM
[46]
  TGI: > 100 µM
[47]
  TGI: > 100 µM
[48]
  TGI: > 100 µM
[49]
  TGI: > 100 µM
[50]
  TGI: > 100 µM

## COC1=C(OC)C(O)(c2ccccc2)C1=O (stereo not given)
[1]
  TGI: > 100 µM
[3]
  TGI: > 100 µM
[51]
  TGI: > 100 µM
[5]
  TGI: > 100 µM
[6]
  TGI: > 100 µM
[7]
  TGI: > 100 µM
[52]
  TGI: > 100 µM
[11]
  TGI: > 100 µM
[12]
  TGI: > 100 µM
[15]
  TGI: > 100 µM
[16]
  TGI: > 100 µM
[17]
  TGI: > 100 µM
[21]
  TGI: > 100 µM
[23]
  TGI: > 100 µM
[25]
  TGI: > 100 µM
[26]
  TGI: > 100 µM
[53]
  TGI: > 100 µM
[27]
  TGI: > 100 µM
[29]
  TGI: > 100 µM
[30]
  TGI: > 100 µM
[31]
  TGI: > 100 µM
[32]
  TGI: > 100 µM
[33]
  TGI: > 100 µM
[34]
  TGI: > 100 µM
[54]
  TGI: > 100 µM
[37]
  TGI: > 100 µM
[39]
  TGI: > 100 µM
[43]
  TGI: > 100 µM
[44]
  TGI: > 100 µM
[48]
  TGI: > 100 µM
[49]
  TGI: 85.7 µM
[50]
  TGI: > 100 µM

## O=C(c1nc2ccc(Cl)cc2[nH]c1=O)C(O)c1ccccc1 (stereo not given)
[1]
  TGI: > 100 µM
[2]
  TGI: > 100 µM
[3]
  TGI: 25.4 µM
[4]
  TGI: > 100 µM
[51]
  TGI: > 100 µM
[5]
  TGI: > 100 µM
[6]
  TGI: > 100 µM
[7]
  TGI: > 100 µM
[8]
  TGI: > 100 µM
[9]
  TGI: > 100 µM
[52]
  TGI: > 100 µM
[10]
  TGI: > 100 µM
[11]
  TGI: > 100 µM
[13]
  TGI: > 100 µM
[14]
  TGI: > 100 µM
[15]
  TGI: > 100 µM
[16]
  TGI: 68.8 µM
[17]
  TGI: > 100 µM
[18]
  TGI: > 100 µM
[19]
  TGI: > 100 µM
[55]
  TGI: > 100 µM
[56]
  TGI: > 100 µM
[21]
  TGI: > 100 µM
[22]
  TGI: > 100 µM
[23]
  TGI: > 100 µM
[24]
  TGI: > 100 µM
[25]
  TGI: > 100 µM
[26]
  TGI: > 100 µM
[53]
  TGI: > 100 µM
[27]
  TGI: > 100 µM
[28]
  TGI: > 100 µM
[29]
  TGI: > 100 µM
[30]
  TGI: > 100 µM
[31]
  TGI: > 100 µM
[32]
  TGI: > 100 µM
[33]
  TGI: > 100 µM
[34]
  TGI: > 100 µM
[54]
  TGI: > 100 µM
[35]
  TGI: > 100 µM
[36]
  TGI: > 100 µM
[37]
  TGI: > 100 µM
[38]
  TGI: > 100 µM
[39]
  TGI: > 100 µM
[40]
  TGI: > 100 µM
[41]
  TGI: > 100 µM
[42]
  TGI: > 100 µM
[43]
  TGI: > 100 µM
[44]
  TGI: > 100 µM
[45]
  TGI: > 100 µM
[46]
  TGI: > 100 µM
[47]
  TGI: > 100 µM
[48]
  TGI: > 100 µM
[49]
  TGI: > 100 µM

## CC1CCC(=O)NCCCCC(=O)N1 (stereo not given)
[1]
  TGI: > 100 µM
[2]
  TGI: > 100 µM
[3]
  TGI: > 100 µM
[4]
  TGI: > 100 µM
[51]
  TGI: > 100 µM
[5]
  TGI: > 100 µM
[6]
  TGI: > 100 µM
[7]
  TGI: > 100 µM
[9]
  TGI: > 100 µM
[52]
  TGI: > 100 µM
[10]
  TGI: > 100 µM
[11]
  TGI: > 100 µM
[12]
  TGI: > 100 µM
[13]
  TGI: > 100 µM
[14]
  TGI: > 100 µM
[15]
  TGI: > 100 µM
[16]
  TGI: > 100 µM
[17]
  TGI: > 100 µM
[18]
  TGI: > 100 µM
[19]
  TGI: > 100 µM
[55]
  TGI: > 100 µM
[56]
  TGI: > 100 µM
[20]
  TGI: > 100 µM
[21]
  TGI: > 100 µM
[22]
  TGI: > 100 µM
[23]
  TGI: > 100 µM
[24]
  TGI: > 100 µM
[25]
  TGI: > 100 µM
[26]
  TGI: > 100 µM
[53]
  TGI: > 100 µM
[27]
  TGI: > 100 µM
[28]
  TGI: > 100 µM
[29]
  TGI: > 100 µM
[30]
  TGI: > 100 µM
[31]
  TGI: > 100 µM
[32]
  TGI: > 100 µM
[33]
  TGI: > 100 µM
[34]
  TGI: > 100 µM
[54]
  TGI: > 100 µM
[35]
  TGI: > 100 µM
[36]
  TGI: > 100 µM
[37]
  TGI: > 100 µM
[38]
  TGI: > 100 µM
[39]
  TGI: > 100 µM
[40]
  TGI: > 100 µM
[41]
  TGI: > 100 µM
[42]
  TGI: > 100 µM
[43]
  TGI: > 100 µM
[44]
  TGI: > 100 µM
[45]
  TGI: > 100 µM
[46]
  TGI: > 100 µM
[47]
  TGI: > 100 µM
[48]
  TGI: > 100 µM
[49]
  TGI: > 100 µM
[50]
  TGI: > 100 µM
